# Measured values published in patent US20250084092A1, “ANNULATED PYRIDAZINE COMPOUND” (Nico Therapeutics, Inc., priority 2021, published 2025).
# Where a name gives a salt, the structure may show the parent alone.
# Molecular target: T1, NLRP3 inflammasome (Homo sapiens, UniProt Q96P20)
# T1 construct: endogenous in cells; host or cells: THP-1 cells (PMA-differentiated, stimulated with LPS and ATP)
# Assay: THP-1 IL-1β production inhibition test
# Format: cell-based
# Conditions: PMA-treated THP-1 cells, LPS 50 ng/mL + ATP 5 mM, 2 hours, IL-1β in supernatant by ELISA
# Method: PMA (phorbol myristate acetate, SIGMA, P1585) was added to THP-1 cells in an amount of 50 ng/mL to culture the cells for 2 days at 37° C. […] LPS (Lipopolysaccharide, SIMGA, L2880) and ATP (Adenosine triphosphate, SIGMA, A2383) were added so that final concentrations become 50 ng/mL and 5 mM, respectively, followed by culturing at 37° C. for 2 hours. The supernatants were collected to measure the concentrations of IL-1β by ELISA (DuoSet ELISA human IL-1β, R&D Systems, DY201). The IL-1β concentrations were plotted against log concentrations of test compounds, and an IC50 value was calculated by sigmoid Emax model nonlinear regression analysis.
# T1 sequence (Q96P20 whole entry): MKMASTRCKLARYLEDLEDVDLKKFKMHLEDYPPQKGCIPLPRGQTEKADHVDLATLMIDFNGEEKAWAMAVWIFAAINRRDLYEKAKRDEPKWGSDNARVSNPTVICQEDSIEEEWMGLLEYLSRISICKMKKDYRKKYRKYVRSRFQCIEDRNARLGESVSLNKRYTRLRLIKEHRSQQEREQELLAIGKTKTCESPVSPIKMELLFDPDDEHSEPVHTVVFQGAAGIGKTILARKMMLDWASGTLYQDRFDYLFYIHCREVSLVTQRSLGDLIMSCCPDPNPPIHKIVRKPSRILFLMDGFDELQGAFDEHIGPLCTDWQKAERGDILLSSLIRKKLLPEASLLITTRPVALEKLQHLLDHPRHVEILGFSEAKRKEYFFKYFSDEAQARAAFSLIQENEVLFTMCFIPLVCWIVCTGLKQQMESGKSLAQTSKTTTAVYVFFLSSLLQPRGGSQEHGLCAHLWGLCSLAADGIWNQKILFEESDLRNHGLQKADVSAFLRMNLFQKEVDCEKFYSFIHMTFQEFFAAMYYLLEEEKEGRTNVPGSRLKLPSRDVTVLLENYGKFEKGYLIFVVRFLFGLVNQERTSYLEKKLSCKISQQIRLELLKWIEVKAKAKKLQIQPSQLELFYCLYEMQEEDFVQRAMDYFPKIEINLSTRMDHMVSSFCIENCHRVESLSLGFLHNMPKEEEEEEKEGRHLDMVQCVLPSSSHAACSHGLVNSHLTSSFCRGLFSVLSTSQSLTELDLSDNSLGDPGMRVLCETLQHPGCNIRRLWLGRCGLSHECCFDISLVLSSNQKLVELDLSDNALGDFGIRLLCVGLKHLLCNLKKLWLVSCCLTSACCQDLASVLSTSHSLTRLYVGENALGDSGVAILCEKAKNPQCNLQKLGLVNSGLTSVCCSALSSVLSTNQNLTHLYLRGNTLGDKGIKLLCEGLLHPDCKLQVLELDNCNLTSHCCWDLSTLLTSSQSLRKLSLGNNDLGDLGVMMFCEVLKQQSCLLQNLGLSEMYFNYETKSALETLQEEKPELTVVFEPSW
row,Compound,IC50 [µM]
1,CN1CCC[C@@H](Nc2nnc(-c3ccc(OC(F)F)cc3O)c3c2CCOC3)C1 [Example 120],0.001
2,COc1ccc(-c2nnc(NCCCO)c3c2CCCC3)cc1 [Example 7],8.5
3,CC(=O)N1CCC[C@@H](Nc2nnc(-c3ccc(C(F)(F)F)cc3O)c3ccccc23)C1 [Example 63],0.0094
4,Cc1ccc(-c2nnc(N[C@@H]3CCCC[C@H]3O)c3c2CCCC3)c(O)c1 [Example 26],0.015
5,Oc1cc(C(F)(F)F)ccc1-c1nnc(N[C@@H]2CCCC[C@H]2O)c2c1CCCCC2 [Example 34],0.0039
6,Oc1cc(OC(F)(F)F)ccc1-c1nnc(N[C@@H]2CCOC[C@H]2O)c2c1CCCCC2 [Example 45],0.014
7,Oc1cc(C(F)(F)F)ccc1-c1nnc(N[C@@H]2CCOC[C@H]2O)c2c1CCOC2 [101(1)],0.002
8,C[C@]1(O)C[C@@H](Nc2nnc(-c3ccc(C(F)(F)F)cc3O)c3c2CCOC3)C1 [56(2)],0.036
9,CN1CCC[C@@H](Nc2nnc(-c3ccc(Cl)cc3O)c3c2COCC3)C1 [Example 109],0.0015
10,COc1ccc(-c2nnc(N[C@@H]3CCCC[C@H]3O)c3c2CCCCC3)c(O)c1 [Example 47],0.016
11,"Oc1cc(OC(F)(F)F)ccc1-c1nnc(N[C@@H]2CCCC[C@H]2O)c2c1COCC2 [3(2), 2-(1-{[(1R,2R)-2-hydroxycyclohexyl]amino}-7,8-dihydro-5H-pyrano[3,4-d]pyridazin-4-yl)-5-(trifluoromethoxy)phenol]",0.007
12,Oc1cc(C(F)F)ccc1-c1nnc(N[C@@H]2CCCC[C@H]2O)c2c1CCCC2 [Example 84],0.018
13,CC(=O)N1CCC[C@@H](Oc2nnc(-c3ccc(C(F)(F)F)cc3O)c3ccccc23)C1 [Example 65],0.048
14,Oc1cc(C(F)(F)F)ccc1-c1nnc(N[C@@H]2CCCC[C@H]2O)c2c1CNCC2 [Example 91],0.56
15,Oc1cc(C(F)(F)F)c(F)cc1-c1nnc(N[C@@H]2CCCC[C@H]2O)c2c1CCCC2 [Example 85],0.058
16,C[C@@H](O)CNc1nnc(-c2ccc(C(F)(F)F)cc2C(F)(F)F)c2c1CN(C)CC2 [Example 74],1.4
17,Oc1cc(OC(F)(F)F)ccc1-c1nnc(N[C@@H]2CCCC[C@H]2O)c2c1CCCC2 [Example 27],0.0041
18,Oc1cc(Cl)ccc1-c1nnc(N[C@@H]2CCOC[C@H]2O)c2c1CCCC2 [Example 39],0.019
19,CN1CCC[C@@H](Nc2nnc(-c3ccc(C(F)(F)F)cc3O)c3c2CSC3(C)C)C1 [Example 123],0.047
20,C[C@]1(O)C[C@@H](Nc2nnc(-c3ccc(C(F)(F)F)cc3O)c3c2CCC3)C1 [Example 59],0.04
21,"CN1CCC[C@@H](Nc2nnc(-c3ccc(OC(F)(F)F)cc3O)c3c2COCC3)C1 [Example 128, 2-(4-{[(3R)-1-methylpiperidin-3-yl]amino}-7,8-dihydro-5H-pyrano[3,4-d]pyridazin-1-yl)-5-(trifluoromethoxy)phenol]",0.0033

row,Compound,IC50 [µM]
1,COc1ccc(-c2nnc(N[C@@H]3CCCC[C@H]3O)c3c2CCCC3)c(O)c1 [Example 28],0.014
2,Cc1ccc(-c2nnc(N[C@@H]3CCOC[C@H]3O)c3c2CCCC3)c(O)c1 [Example 36],0.032
3,Oc1cc(C(F)(F)F)ccc1-c1nnc(N[C@@H]2CCCC[C@H]2O)c2ccccc12 [Example 15],0.0028
4,"N[C@@H]1CCCC[C@H]1Nc1nnc(-c2ccc(C(F)(F)F)cc2O)c2ccccc12 [Example 82, 2-(4-{[(1R,2R)-2-aminocyclohexyl]amino}phthalazin-1-yl)-5-(trifluoromethyl)phenol dihydrochloride]",0.028
5,C[C@@H](O)CNc1nnc(-c2ccc(C(F)(F)F)cc2O)c2ccncc12 [16(1)],0.0019
6,Oc1cc(OC(F)(F)F)ccc1-c1nnc(N[C@@H]2CCCC[C@H]2O)c2c1CCCCC2 [Example 43],0.0087
7,Oc1cc(OC(F)(F)F)ccc1-c1nnc(N[C@@H]2CCC[C@H](O)C2)c2c1CCOC2 [Example 106],0.0048
8,C[C@]1(O)C[C@@H](Nc2nnc(-c3ccc(C(F)(F)F)cc3O)c3c2COCC3)C1 [56(1)],0.007
9,"CC(=O)N1Cc2c(N[C@@H]3CCCC[C@H]3O)nnc(-c3ccc(C(F)(F)F)cc3O)c2C1 [Example 117, 1-(1-{[(1R,2R)-2-hydroxycyclohexyl]amino}-4-[2-hydroxy-4-(trifluoromethyl)phenyl]-5,7-dihydro-6H-pyrrolo[3,4-d]pyridazin-6-yl)ethan-1-one]",0.13
10,O=C1NCC[C@@H]1Nc1nnc(-c2ccc(C(F)(F)F)cc2O)c2c1CCCC2 [Example 50],0.0082
11,Oc1cc(C(F)(F)F)ccc1-c1nnc(N[C@H]2CCCC[C@@H]2O)c2c1COCC2 [66(1)],0.99
12,Oc1cc(C(F)F)ccc1-c1nnc(N[C@@H]2CCCC[C@H]2O)c2c1COC2 [Example 115],0.011
13,Cc1ccc(-c2nnc(N[C@@H]3CCCC[C@H]3O)c3c2CCN(C)C3)c(O)c1 [Example 77],0.033
14,"CN1CCC[C@@H](Nc2nnc(-c3ccc(OC(F)F)cc3O)c3c2COCC3)C1 [Example 136, 5-(difluoromethoxy)-2-(4-{[(3R)-1-methylpiperidin-3-yl]amino}-7,8-dihydro-5H-pyrano[3,4-d]pyridazin-1-yl)phenol dihydrochloride]",0.0022
15,C[C@@H](O)CNc1nnc(-c2ccc(C(F)(F)F)cc2O)c2c1CCC2 [Example 18],0.034
16,N#C[C@@H]1CCCC[C@H]1Nc1nnc(-c2ccc(C(F)(F)F)cc2O)c2c1COCC2 [72(1)],0.027
17,Oc1cc(C(F)(F)F)ccc1-c1nnc(N[C@@H]2CCCC[C@H]2O)c2c1CCSC2 [Example 103],0.0044
18,C[C@]1(O)C[C@@H](Nc2nnc(-c3ccc(OC(F)(F)F)cc3O)c3c2CCCC3)C1 [Example 32],0.076
19,[O-][S+]1Cc2c(N[C@@H]3CCCC[C@H]3O)nnc(-c3ccc(C(F)(F)F)cc3O)c2C1 (stereo partly drawn) [131(2)],0.079
20,Oc1cc(C(F)(F)F)ccc1-c1nnc(NCC2(O)CCC2)c2ccccc12 [Example 12],0.058
21,Oc1cc(C2CC2)ccc1-c1nnc(N[C@@H]2CCCC[C@H]2O)c2c1CCOC2 [52(1)],0.0041

row,Compound,IC50 [µM]
1,"CC(=O)N1CCc2c(-c3ccc(C(F)(F)F)cc3O)nnc(N[C@@H]3CCCC[C@H]3O)c2C1 [Example 92, 1-[4-{[(1R,2R)-2-hydroxycyclohexyl]amino}-1-[2-hydroxy-4-(trifluoromethyl)phenyl]-7,8-dihydropyrido[3,4-d]pyridazin-6(5H)-yl]ethan-1-one]",0.047
2,"Oc1cc(C(F)(F)F)ccc1-c1nnc(N[C@@H]2CCCC[C@H]2O)c2sccc12 [Example 94, 2-(7-{[(1R,2R)-2-hydroxycyclohexyl]amino}thieno[2,3-d]pyridazin-4-yl)-5-(trifluoromethyl)phenol]",0.0051
3,Oc1cc(C(F)(F)F)ccc1-c1nnc(N[C@@H]2CCOC[C@H]2O)c2c1CCCC2 [Example 35],0.016
4,"CN1CCC[C@@H](Nc2nnc(-c3ccc(C4CC4)cc3O)c3c2COCC3)C1 [Example 112, 5-cyclopropyl-2-(4-{[(3R)-1-methylpiperidin-3-yl]amino}-7,8-dihydro-5H-pyrano[3,4-d]pyridazin-1-yl)phenol]",0.0013
5,COc1ccc(-c2nnc(N[C@@H]3CCOC[C@H]3O)c3c2CCCCC3)c(O)c1 [Example 49],0.022
6,C[C@@H](O)CCc1nnc(-c2ccc(C(F)(F)F)cc2O)c2c1CCCC2 [Example 20],0.022
7,CN1CCC[C@@H](Nc2nnc(-c3ccc(C(F)F)cc3O)c3c2COCC3)C1 [Example 113],0.0012
8,"Oc1cc(C(F)(F)F)ccc1-c1nnc(N[C@@H]2CCCN(C3CC3)C2)c2c1CSC2 [Example 126, 2-(4-{[(3R)-1-cyclopropylpiperidin-3-yl]amino}-5,7-dihydrothieno[3,4-d]pyridazin-1-yl)-5-(trifluoromethyl)phenol]",0.0071
9,Oc1cc(C(F)(F)F)ccc1-c1nnc(N[C@@H]2CCC[C@H](O)C2)c2c1CCOC2 [Example 104],0.0035
10,Oc1cc(C(F)(F)F)ccc1-c1nnc(N[C@@H]2CCCC[C@H]2O)c2c1CCC1(COC1)C2 [Example 107],0.0036
11,CC(=O)N[C@@H]1CCCC[C@H]1Nc1nnc(-c2ccc(C(F)(F)F)cc2O)c2ccccc12 [Example 23],0.017
12,Oc1cc(C(F)(F)F)ccc1-c1nnc(N[C@@H]2CCCC[C@H]2O)c2c1CCCO2 [Example 41],0.04
13,CN1CCC[C@@H](Nc2nnc(-c3ccc(C(F)(F)F)cc3O)c3c2CCOCC3)C1 [Example 105],0.0089
14,CN1CCC[C@@H](Nc2nnc(-c3ccc(C(F)(F)F)cc3O)c3c2CSC3)C1 [Example 121],0.0085
15,C[C@]1(O)C[C@@H](Nc2nnc(-c3ccc(C(F)(F)F)cc3O)c3c2CCCCC3)C1 [Example 48],0.036
16,C[C@@]1(O)CCCC[C@H]1Nc1nnc(-c2ccc(C(F)(F)F)cc2O)c2c1CCCC2 [Example 53],0.015
17,Oc1cc(C(F)(F)F)ccc1-c1nnc(NC[C@H]2CCCO2)c2ccccc12 [Example 14],0.0076
18,C[C@]1(O)C[C@@H](Nc2nnc(-c3ccc(C(F)(F)F)cc3O)c3c2CCCC3)C1 [Example 29],0.018
19,"Oc1cc(C(F)(F)F)ccc1-c1nnc(N[C@@H]2CCCC[C@@H]2O)c2c1COCC2 [4(2), 2-(1-{[(1R,2S)-2-hydroxycyclohexyl]amino}-7,8-dihydro-5H-pyrano[3,4-d]pyridazin-4-yl)-5-(trifluoromethyl)phenol]",0.015
20,Oc1cc(C2CC2)ccc1-c1nnc(N[C@@H]2CCCC[C@H]2O)c2c1COCC2 [52(2)],0.027
21,CN1CCc2c(N[C@@H]3CCCC[C@H]3O)nnc(-c3ccc(C(F)(F)F)cc3O)c2C1 [Example 75],0.054
